Earlier results on nine compounds are cited in patent publication US20240269237A1, “PHARMACEUTICAL COMPOSITION AND KIT COMPRISING AN IMMUNOMODULATORY SUBSTANCE FOR TREATING DISEASES” (ellennbe GmbH, priority 2021, published 2024).

One series relates to perfusion of the skin. Conditions: healthy subjects.
For another series, the system named is rheumatoid arthritis. Particulars: for adverse effects of earlier treatment: Patient 7, history, regimen of MTX and upadacitinib tried a second time.
Series [1] concerns ankylosing spondylitis (Bechterew's disease). Particulars: for tolerability of earlier TNF-α inhibitors: human, in vivo; for effect of earlier treatment with biologics: Patient 11, history, within half a year the biologics lost their effect.

For the compound `COC(=O)c1cccnc1` [MN, methyl nicotinate], the perfusion response entry in the series with perfusion of the skin (50 μl of 20 mmol/l topically) is reported as “reproducible perfusion response”. Also, the “time course of perfusion increase” value in the series with perfusion of the skin (topical application) is “reaches a stable plateau phase after five minutes”.

`CN(Cc1cnc2nc(N)nc(N)c2n1)c1ccc(C(=O)N[C@@H](CCC(=O)O)C(=O)O)cc1` [MTX, methotrexate]: the “adverse effects of earlier treatment” value in the series with rheumatoid arthritis is “severe adverse effects (tendency to fibrosis in the lungs and sinusitis)”. Regarding `CC[C@@H]1CN(C(=O)NCC(F)(F)F)C[C@@H]1c1cnc2cnc3[nH]ccc3n12` [upadacitinib], the “adverse effects of earlier treatment” value with rheumatoid arthritis was “severe adverse effects (tendency to fibrosis in the lungs and sinusitis)”. Remicade®: TNF-α inhibitor: the “tolerability of earlier TNF-α inhibitors” value in series [1] was “strong adverse side effects”. Turning to Symponi®: TNF-α inhibitor, the “tolerability of earlier TNF-α inhibitors” value in series [1] is “strong adverse side effects”.

On to adalinumab [Humira®], for which the “effect of earlier treatment with biologics” value in series [1] was “little effect from the outset”. Take etanercept [Enbrel®]: in series [1], the “tolerability of earlier TNF-α inhibitors” value is listed as “strong adverse side effects”. Turning to golimumab [Simponi®], the “effect of earlier treatment with biologics” value in series [1] was “little effect from the outset”. Take tocilizumab: the “efficacy of basic treatment” value with rheumatoid arthritis (Patient 7, 162 mg per week) is “only partially efficient”.
